Assay results taken from patent US10806711B2 (priority 2011, dated 2020).
Entries after “also recorded” stand apart in the source; their conditions may differ.

What was measured:
HL-1 cells = type: cell-based
Experimental: Cell Viability Assays—Cell viability was assessed using the ApoTox-Glo Triplex Assay (Promega, Madison, Wis.) per manufacturer's instructions. Briefly, HL-1 cells were seeded in 96 well plates at a density of 1×10^4 cells/well and allowed to grow overnight in Claycomb media supplemented with 10% FBS, 100 U/ml penicillin/streptomycin, and 2 mM L-glutamine. […] GF-AFC viability was then added to ApoTox-Glo Assay Buffer at a ratio of 10 μl GF-AFC to 2.0 ml Assay Buffer and 20 μl of this mixture was added to each well and cells were incubated at 37° C. for 30 minutes. Fluorescence was measured at 400 nm (ex)/505 nm (em) and the data was normalized to untreated control cells.

[1] = system: isolated ventricular myocytes; test: Myocyte contractility measurement; type: cell-based, mouse; details: ruthenium red pretreatment, 10^−7 M probenecid
Experimental: Isolation of ventricular myocytes—Hearts from WT mice (12-week old) were perfused on the Langendorff system with a modified Krebs-Henseleit buffer (KHB) composed of (mM) NaCl 118, KCl 5.4, HEPES 10, NaH2PO4 0.33, MgCl2 2, glucose 10, taurine 30, butanedione monoxime 10 (pH=7.4). Then an enzyme solution (KHB containing 0.7 mg/ml type II collagenase, 0.1% BSA and 25 μM CaCl2) was used to digest the hearts for 10 min. Finally, ventricles of the hearts were excised, minced and filtered to obtain isolated cells. After sufficient sedimentation, the supernatant was removed and the cells were resuspended. Myocyte contractility measurement—Myocytes were put on a plexiglass chamber containing a Tyrode's solution composed of (mM) NaCl 140, KCl, 5.4, MgCl2 1, CaCl2 1.8, HEPES 5, glucose 10 (pH=7.4). Myocytes were excited under 0.5 Hz field stimulation. After reaching the steady state, myocyte shortening and the rates of shortening (+dL/dt) and relengthening (−dL/dt) were imaged with a CCD camera and monitored by a video-edge detector. Drugs were dissolved in Tyrode's solution and perfused into the chamber. Data were continuously collected through the PCLAMP 9 software. Water soluble probenecid was used for all of the myocyte experiments.

[2] = system: isolated ventricular myocytes; test: Myocyte Ca2+ transient and cytosolic Ca2+ measurement; type: cell-based, mouse
Experimental: Isolation of ventricular myocytes—Hearts from WT mice (12-week old) were perfused on the Langendorff system with a modified Krebs-Henseleit buffer (KHB) composed of (mM) NaCl 118, KCl 5.4, HEPES 10, NaH2PO4 0.33, MgCl2 2, glucose 10, taurine 30, butanedione monoxime 10 (pH=7.4). Then an enzyme solution (KHB containing 0.7 mg/ml type II collagenase, 0.1% BSA and 25 μM CaCl2) was used to digest the hearts for 10 min. Finally, ventricles of the hearts were excised, minced and filtered to obtain isolated cells. After sufficient sedimentation, the supernatant was removed and the cells were resuspended.
Myocyte Ca^2+ transient and cytosolic Ca^2+ measurement—Myocytes were loaded with Fluo-4 acetoxymethyl ester (7 μM) for 20 min at room temperature, followed by a 10 min wash with Tyrode's solution, and then placed onto a plexiglass chamber for recording. For Ca^2+ transient measurements, myocytes were excited under 0.5 Hz and 3 Hz field stimulation, and the fluorescence signals were obtained using a Nikon TE 2000 microscope and collected through an InCyt Standard photometry system. For cytosolic Ca^2+ analysis in quiescent myocytes, a Zeiss LSM 510 confocal microscope was used to record fluorescent images from resting myocytes. Line-scan mode was applied at 3.07 ms intervals with 512 pixels spaced at 0.056 μm. Drugs were dissolved in Tyrode's solution and perfused into the chamber. Images of myocytes were recorded every 30 s after drug application. Data analysis was performed using Clampfit 9.2 and Image J 1.44 software.
Water soluble probenecid was used for all of the myocyte experiments.

What does the source list for `CC(C)NCC(O)c1ccc(O)c(O)c1` (stereo not shown) [isoproterenol]?
cell death at 24 hours, compared with H2O2 positive control (HL-1 cells; 1.0 mM, 24 hours): substantial cell death; also recorded: indistinguishable from H2O2 positive controls; cells still viable (HL-1 cells; 1.0 mM, 24 hours): less than 20%; cell death (HL-1 cells; 1.0 mM, after 4 and 8 hours of treatment): significant amount of cell death; cell death in HL-1 cells (Example 3 summary) (HL-1 cells; probenecid at supraphysiological, isoproterenol at clinically relevant concentrations): increased cell death

What does the source list for `N.N.N.N.N.N.N.N.N.N.N.N.N.N.[Cl-].[Cl-].[Cl-].[Cl-].[Cl-].[Cl-].[O-2].[O-2].[Ru+3].[Ru+3].[Ru+4]` [ruthenium red]?
effect of pretreatment on probenecid's effect on myocyte contractility [1]: completely abolished; effect on the increase of cytosolic Ca2+ by probenecid ([2]; ruthenium red 1 μM applied, 0.1 μM probenecid): fully blocked

`C/C=C(/C)C(=O)O[C@H]1C(C)=C2[C@H]([C@@H]1OC(=O)CCCCCCC)[C@@](C)(OC(C)=O)C[C@H](OC(=O)CCC)[C@@]1(O)[C@H]2OC(=O)[C@@]1(C)O` [thapsigargin] was tested. Which “effect on the change in cytosolic Ca2+ by probenecid” value ([2]; thapsigargin 10^−6 M pretreatment 15 minutes, 10^−7 M probenecid) did it give?
Its value is “abolished”.
